Reference: patent US5260060A, “Fibrinolytic enzymes” (priority 1991, dated 1993)

Tests used:
[1] = target: Accfib (Agkistrodon contortrix contortrix, UniProt P28891); test: biochemical
[2] = target: T1, thermolysin (Bacillus thermoproteolyticus, UniProt P00800); details: cited from earlier work
T1 sequence (P00800 233-548): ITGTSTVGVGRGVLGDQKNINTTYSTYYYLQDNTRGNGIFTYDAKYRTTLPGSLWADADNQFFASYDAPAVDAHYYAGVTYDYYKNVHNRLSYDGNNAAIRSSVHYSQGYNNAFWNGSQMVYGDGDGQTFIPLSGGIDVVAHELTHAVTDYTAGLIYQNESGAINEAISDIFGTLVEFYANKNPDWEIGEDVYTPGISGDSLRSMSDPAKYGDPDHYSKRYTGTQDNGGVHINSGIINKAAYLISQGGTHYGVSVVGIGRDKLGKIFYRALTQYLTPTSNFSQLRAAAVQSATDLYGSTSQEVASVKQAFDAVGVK

Accfib, sequence (P28891 whole entry, looked up): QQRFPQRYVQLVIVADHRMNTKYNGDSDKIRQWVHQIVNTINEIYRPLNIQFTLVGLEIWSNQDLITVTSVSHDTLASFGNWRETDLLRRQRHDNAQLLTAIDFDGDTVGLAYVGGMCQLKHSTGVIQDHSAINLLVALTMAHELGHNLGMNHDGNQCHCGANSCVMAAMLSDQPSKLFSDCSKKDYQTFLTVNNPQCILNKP

## CC(C)CC(C(=O)NO)C(=O)N[C@@H](C)C(=O)NCC(N)=O (stereo partly drawn) [Zincov, 2-(N-hydroxycarboxamido)-4-methylpentanoyl-L-alanyl-glycine amide]
[1]
  Ki: 16 mM
[2]
  Ki: 480 nM
